# Like-named read-outs stand apart in the source and are kept apart here.
# Columns and labels:
# [1] = system: gamma-aminobutyric acid (GABA) release from insect synaptosomes; assay: Release of 3H-labelled GABA from insect synaptosomes (Example H); format: biochemical; details: 1 = most potent of five compounds
# Text: Interference with gamma-aminobutyric acid (GABA) release from insect synaptosomes is thought to be important in the insecticidal action of the compounds of the invention. Using published procedures (E. G. Gray and V. P. Whittaker, Journal of Anatomy 96, 79-87 (1962); G. Levi, V. Gallo and M. Raiter, Neurochemical Research 5(3), 281-295 (1980)), compounds of Formula I were compared with related compounds outside the scope of the invention.
# Arranged in decreasing order of potency (release of ^3 H-labelled GABA), the compounds were: […]
# [2] = system: female Musca domestica (WRL strain); assay: Topical application to houseflies with and without piperonyl butoxide pretreatment (Example A); details: for percent knockdown: 6 μg applied, 1 hour; for mortality at 0.006 mg: Musca domestica, topical, 24 h
# Procedure: Where pretreatment with a synergist was used, the test compound was applied 1 hour after application of the synergist (6 μg piperonyl butoxide (PB) per insect). Knockdown was assessed after 1 hour, and mortality after 24 hours.
# Sitophilus granarius = format: in vivo; details: 200 (+1000 pb) ppm; 6 days
# [3] = system: third instar larvae of Aedes aegypti; assay: Exposure of mosquito larvae to aqueous suspension with piperonyl butoxide (Example D); format: in vivo; details: 2.5 (+12.5 pb) ppm; 18 hours
# Procedure: Mortality was assessed after 18 hours.
# male Blattella germanica = assay: Exposure of cockroaches to deposit on glass with piperonyl butoxide (Example B); format: in vivo; details: 700 (+700 pb) mg m^-2
# Procedure: Knockdown was assessed after 10 and 60 minutes and mortality after 1 and 6 days.
# [4] = system: Female houseflies (Musca domestica); assay: Potentiation by other unsaturated amides in houseflies (Example G (i)); format: in vivo; details: 6 μg PB one hour earlier
# Procedure: Female houseflies (Musca domestica) were treated with solutions of compounds of Formula I and a potential synergist both dissolved in butanone, the flies having been treated one hour earlier with 6 μg piperonyl butoxide (PB).
# The dose required to prevent flight of half the flies 10 minutes after application of the compound (KD50) was determined and the factor of potentiation (FOP) was calculated by the Equation of the Harmonic Mean for mixtures of the compounds.
# [5] = system: fully engorged female Boophilus microplus, susceptible strain; assay: Cattle tick injection test (Example F (i)); format: in vivo; details: 14 days; for No. dead / No. laying viable eggs: 10 ticks
# Procedure: The compound was supplied as a […] solution in DMSO:Acetone (1:1). Administration of the compound was by means of a microapplicator which was preset to deliver 0.2 μl of solution. The compound in solution was injected into fully engorged female Boophilus microplus, susceptible strain, at a site just lateral to the mouthparts at the rate of 10 μg/tick. Reducing the concentration reduced the dose delivered. After injection the ticks were maintained at 24° C. and 85% RH for 14 days. At this time the ticks were examined for the presence of viable eggs which gave the percent inhibition of reproduction (% IR). The number of dead ticks was also noted.
# B. microplus Susceptible = assay: Larval tick immersion test, susceptible strain (Example F); format: in vivo, Boophilus microplus; details: larvae
# Text: (§1) Larval ticks were immersed using a published method (Shaw, R. D., Cook, M. and Carson, R. E. (1968). J. Econ. Ent. 61, 1590). Mortality data are presented for B. microplus susceptible and pyrethroid resistant strain (Malchi).
# houseflies = assay: Potentiation by pyrethroids, spray chamber, S-bioallethrin (Example G (ii)); format: in vivo, housefly (Musca domestica); details: mixture ratio 45:1
# Text: Solutions of the compounds were sprayed into a chamber and houseflies released into the chamber.
# [6] = system: B. microplus pyrethroid resistant strain (Malchi); assay: Larval tick immersion test, pyrethroid resistant strain (Example F); format: in vivo, Boophilus microplus; details: larvae
# Text: as §1
# [7] = system: fully engorged female B. microplus susceptible strain; assay: Cattle tick adult immersion test (Example F (ii), (iii)); format: in vivo, Boophilus microplus; details: adults, 10 minutes immersion, 14 days
# Procedure: The compound was supplied as a 100 mg/liter solution in Esso 200/[…]. Dilution with water gave the required concentrations. Groups of 20 fully engorged female B. microplus susceptible strain were placed in a mesh basket which was immersed in the test dilution for 10 minutes. After immersion the ticks were removed, dried and then fixed to double-sided adhesive tape which was itself affixed to white plastic boards. The boards holding the ticks were held at 24° C. and 85% RH for 14 days. Individual egg masses were scored from 0-4 for quality and quantity and the total score for each group was obtained. The scores were corrected for water control oviposition, plotted on log-probit paper and the % concentration inhibiting 50% and 99% of viable oviposition determined.
# female Aedes aegypti = assay: Application to adult mosquitoes with piperonyl butoxide (Example E); format: in vivo; details: 2 (4 pb) μg applied
# Procedure: Knockdown was assessed after 1 hour and mortality after 24 hours.
# [8] = 6 μg PB pretreatment 1 hour before
# [9] = read-out: percent mortality, 6 μg applied, 6 μg PB pretreatment 1 hour before, 24 hours
# [10] = read-out: percent mortality, 6 μg applied, synergist: none, 24 hours
smiles,measurement,setting,value
CC(C)CNC(=O)/C=C/CC/C=C\C=C\c1cccc(C(F)(F)F)c1,rank in decreasing order of potency (release of ^3 H-labelled GABA),[1],4
"CC(C)CNC(=O)/C=C/CC/C=C\c1ccccc1 [Example 3, N-isobutyl-7-phenylhepta-2E,6Z-dienamide]",percent knockdown,[2]; [8],90%
same,percent knockdown,[2]; synergist: none,5%
same,mortality at 0.006 mg,[2]; [9],95%
same,mortality at 0.006 mg,[2]; [10],2.5%
same,% mortality,Sitophilus granarius,100%
same,% mortality,[3],100%
same,% knockdown 10 mins,male Blattella germanica,13%
same,% knockdown 60 mins,male Blattella germanica,20%
same,% mortality 1 day,male Blattella germanica,20%
same,% mortality 6 days,male Blattella germanica,20%
"CCCCC/C=C/C=C/C(=O)NCC(C)C [N--isobutyl-(2E,4E)-decadienamide, reference compound]",KD50 (dose required to prevent flight of half the flies 10 minutes after application),[4],77 μg/fly
CC(C)CNC(=O)/C=C/CC/C=C\C=C\c1ccc2c(c1)OCO2 [reference compound],rank in decreasing order of potency (release of ^3 H-labelled GABA),[1],5
"CCCCOCCOCCOCc1cc2c(cc1CCC)OCO2 [PB, piperonyl butoxide, reference compound]",mortality at 0.006 mg,[2],0%
same,knockdown,"[2]; PB alone, 6 μg per fly",0%
"CC(C)CNC(=O)/C=C/CC/C=C\C=C\c1ccccc1 [Example 9, N-isobutyl-9-phenyl-nona-2 (E),6(Z),8(E)-trienamide]",rank in decreasing order of potency (release of ^3 H-labelled GABA),[1],3
same,No. dead,[5]; 1 μg injected,0
same,No. laying viable eggs,[5]; 1 μg injected,8
same,% IR (percent inhibition of reproduction),[5]; 1 μg injected,20%
same,No. dead,[5]; 5 μg injected,1
same,No. laying viable eggs,[5]; 5 μg injected,3
same,% IR (percent inhibition of reproduction),[5]; 5 μg injected,70%
same,No. dead,[5]; 10 μg injected,3
same,No. laying viable eggs,[5]; 10 μg injected,1
same,% IR (percent inhibition of reproduction),[5]; 10 μg injected,90%
same,mortality at 0.001 mg,"[5]; Rhipicephalus microplus, 336 h, 1 μg injected, read-out: % Kill",0%
same,mortality at 0.005 mg,"[5]; Rhipicephalus microplus, 336 h, 5 μg injected, read-out: % Kill",10%
same,mortality at 0.01 mg,"[5]; Rhipicephalus microplus, 336 h, 10 μg injected, read-out: % Kill",30%
same,percent knockdown,[2]; [8],100%
same,percent knockdown,[2]; synergist: none,95%
same,mortality at 0.006 mg,[2]; [9],100%
same,mortality at 0.006 mg,[2]; [10],0%
same,LC50,B. microplus Susceptible,0.00044%
same,LC50 (concentration for death of half the flies),houseflies,1.8%
same,LC50,[6],0.00022%
same,% mortality,Sitophilus granarius,100%
same,IR50 (% concentration inhibiting 50% of viable oviposition),[7],0.026%
same,IR99 (% concentration inhibiting 99% of viable oviposition),[7],0.1%
same,LC50,[7],0.1%
same,% mortality,[3],100%
same,% knockdown 10 mins,male Blattella germanica,7%
same,% knockdown 60 mins,male Blattella germanica,7%
same,% mortality 1 day,male Blattella germanica,33%
same,% mortality 6 days,male Blattella germanica,40%
same,KD50 (dose required to prevent flight of half the flies 10 minutes after application),[4],8.4 μg/fly
same,% knockdown,female Aedes aegypti; 1 hour,70%
same,% mortality,female Aedes aegypti; 24 hours,80%
"C=CCC1=C(C)[C@@H](OC(=O)[C@@H]2[C@@H](C=C(C)C)C2(C)C)CC1=O [S-bioallethrin, reference compound]",LC50 (concentration for death of half the flies),houseflies,0.05%
CC(C)CNC(=O)/C=C/C=C/CC/C=C\C=C\c1ccc2c(c1)OCO2 [reference compound],rank in decreasing order of potency (release of ^3 H-labelled GABA),[1],2
"CC(C)CNC(=O)/C=C/C=C/CC/C=C\C=C\c1cccc(C(F)(F)F)c1 [Example 10, N-isobutyl-11-(3'-trifluoromethylphenyl)-(2E,4E,8Z,10E)-undecatetrenamide]",rank in decreasing order of potency (release of ^3 H-labelled GABA),[1],1
same,KD50 (dose required to prevent flight of half the flies 10 minutes after application),[4],5.6 μg/fly

# Source: patent US4855086A, “Novel pesticides, preparation and use” (Burroughs Wellcome Co., priority 1982, dated 1989)
